# Measured values: US9765074B2, “Inhibitors of the renal outer medullary potassium channel” (Merck Sharp & Dohme Corp., priority 2013, dated 2017)
# Target: T1, hROMK (hKir1.1) (Homo sapiens, UniProt P48048)
# T1 construct: expressed in transfected cells
# T1 sequence (P48048 1-391): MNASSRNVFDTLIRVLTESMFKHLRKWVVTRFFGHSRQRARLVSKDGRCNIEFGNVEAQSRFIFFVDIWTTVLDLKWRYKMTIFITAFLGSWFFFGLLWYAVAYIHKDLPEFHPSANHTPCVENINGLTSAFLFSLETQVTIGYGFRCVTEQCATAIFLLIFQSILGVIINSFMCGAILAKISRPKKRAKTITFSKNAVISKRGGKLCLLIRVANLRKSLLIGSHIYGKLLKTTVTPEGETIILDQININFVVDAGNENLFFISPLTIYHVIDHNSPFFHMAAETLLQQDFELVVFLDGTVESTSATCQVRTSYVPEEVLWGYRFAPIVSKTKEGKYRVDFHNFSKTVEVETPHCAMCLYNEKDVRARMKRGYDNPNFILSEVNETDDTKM
# Assay: Thallium Flux Assay (ROMK channel functional thallium flux, FLIPR-Tetra)
# Format: cell-based
# Conditions: HEK293 cells stably expressing hROMK (hKir1.1); 30 min compound incubation
# Method in brief: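 Thallium flux read by FluxOR fluorescence ([…]) for ~10 min after adding 3 mM Tl+/0.3 mM K+ final. Stable HEK-hKir1.1 cells were dye-loaded 90 min, exposed to compound 30 min at room temperature in ouabain/probenecid buffer; IC50 relative to a 3 μM control inhibitor.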
row,Structure (SMILES),IC50 [nM]
1,"CC1=C(N2CCC3(CCN(C[C@@H](O)c4cnc(-n5cnnn5)nc4C)CC3)C2=O)COC1=O [Example 86, 8-{(2S)-2-hydroxy-2-[4-methyl-2-(1H-tetrazol-1-yl)pyrimidin-5-yl]ethyl}-2-(4-methyl-5-oxo-2,5-dihydrofuran-3-yl)-1-oxo-2-aza-8-azoniaspiro[4.5]decane]",40
2,"CC1=C(N2C(=O)C3(CCN(C[C@H](O)c4ccc(-n5cnnn5)nn4)CC3)CC2C)COC1=O (single isomer, unassigned) [Example 125]",60
3,"COC1CN(C2=C(C)C(=O)OC2)C(=O)C12CC1CCC(C2)N1C[C@@H](O)c1ccc(-n2cnnn2)nc1 (single isomer, unassigned) [Example 109]",60
4,"COc1cc(-n2cnnn2)ncc1[C@@H](O)CN1CCC2(CC1)CCN(C1=C(C)C(=O)OC1)C2=O [Example 93, 8-{(2R)-2-hydroxy-2-[4-methoxy-6-(1H-tetrazol-1-yl)pyridin-3-yl]ethyl}-2-(4-methyl-5-oxo-2,5-dihydrofuran-3-yl)-1-oxo-2-aza-8-azoniaspiro[4.5]decane]",30
5,"CC1=C(N2C(=O)C3(CCN(C[C@@H](O)c4ccc(-n5cnnn5)nc4)CC3)CC2C)COC1=O (single isomer, unassigned) [Example 64]",50
6,"CC1=C(N2CCC3(CCN(C[C@@H](O)c4cc(-n5cnnn5)ccn4)CC3)C2=O)COC1=O [Example 71, 8-{(2R)-2-hydroxy-2-[4-(1H-tetrazol-1-yl)pyridin-2-yl]ethyl}-2-(4-methyl-5-oxo-2,5-dihydrofuran-3-yl)-1-oxo-2-aza-8-azoniaspiro[4.5]decane]",70
7,"CC1=C(N2C(=O)C3(CCN(C[C@H](O)c4ccc(-n5cnnn5)nc4)CC3)CC2C)COC1=O (single isomer, unassigned) [Example 66]",10
8,"CC1=C(N2CCC3(CCN(C[C@@H](O)c4ccnc(-n5cnnn5)c4)CC3)C2=O)COC1=O [Example 130, 8-{(2S)-2-hydroxy-2-[2-(1H-tetrazol-1-yl)pyridin-4-yl]ethyl}-2-(4-methyl-5-oxo-2,5-dihydrofuran-3-yl)-1-oxo-2-aza-8-azoniaspiro[4.5]decane]",160
9,"CC1=C(N2CCC3(CCN(C[C@H](O)c4cc(C)c(-n5cnnn5)nn4)CC3)C2=O)COC1=O [Example 128, 8-{(2S)-2-hydroxy-2-[5-methyl-6-(1H-tetrazol-1-yl)pyridazin-3-yl]ethyl}-2-(4-methyl-5-oxo-2,5-dihydrofuran-3-yl)-1-oxo-2-aza-8-azoniaspiro[4.5]decane]",80
10,"CC1=C(N2CCC3(CCN(C[C@H](O)c4ccc(-n5cnnn5)cc4C)CC3)C2=O)COC1=O [Example 38, 8-{(2R)-2-hydroxy-2-[2-methyl-4-(1H-tetrazol-1-yl)phenyl]ethyl}-2-(4-methyl-5-oxo-2,5-dihydrofuran-3-yl)-1-oxo-2-aza-8-azoniaspiro[4.5]decane]",10
11,"CO[C@H](CN1CCC2(CC1)C[C@@H](C)N(C1=CC(=O)OC1)C2=O)c1cnc(-n2cnnn2)cn1 (single isomer, unassigned) [Example 286]",60
12,"CC1=C(N2CCC3(CC4CCC(C3)N4C[C@@H](O)c3nnc(-n4cnnn4)c(C)c3C)C2=O)COC1=O (stereo partly drawn) [Example 51, (1R,5R)-8-{(2R)-2-[4,5-dimethyl-6-(1H-tetrazol-1-yl)pyridazin-3-yl]-2-hydroxyethyl}-1′-(4-methyl-5-oxo-2,5-dihydrofuran-3-yl)-2′-oxospiro[8-azoniabicyclo[3.2.1]octane-3,3′-pyrrolidine]]",30
13,"CC1=C(N2CCC3(CCN(C[C@@H](O)c4c(F)cc(-n5cnnn5)cc4F)CC3)C2=O)COC1=O [Example 143, 8-{(2S)-2-[2,6-difluoro-4-(1H-tetrazol-1-yl)phenyl]-2-hydroxyethyl}-2-(4-methyl-5-oxo-2,5-dihydrofuran-3-yl)-1-oxo-2-aza-8-azoniaspiro[4.5]decane]",190
